Laboratory results taken from ChEMBL document CHEMBL1201862, “PubChem BioAssay data set” (2004).
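These data come from cells grown in 96-well plates and exposed to compound for 48 hours at five concentrations. GI50 is the concentration that inhibits growth by half.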 Activity calls are given as the source filed them. Rule as the data show it: active = GI50 up to about 1.1 µM and inactive = higher.

Tests used:
Experiment in all cases: DTP human tumour cell line panel, 48 h
[1] = test system: 786-0
[2] = test system: A498
[3] = test system: A549
[4] = test system: ACHN
[5] = test system: BT-549
[6] = test system: CAKI-1
[7] = test system: CCRF-CEM
[8] = test system: COLO 205
[9] = test system: DU-145
[10] = test system: EKVX
[11] = test system: HCC 2998
[12] = test system: HCT-116
[13] = test system: HCT-15
[14] = test system: HL-60
[15] = test system: HOP-62
[16] = test system: HOP-92
[17] = test system: HT-29
[18] = test system: Hs-578T
[19] = test system: IGROV-1
[20] = test system: K562
[21] = test system: KM12
[22] = test system: LOX IMVI
[23] = test system: M14
[24] = test system: MCF7
[25] = test system: MDA-MB-231
[26] = test system: MDA-MB-435
[27] = test system: MDA-N
[28] = test system: MOLT-4
[29] = test system: Malme-3M
[30] = test system: NCI-H226
[31] = test system: NCI-H23
[32] = test system: NCI-H460
[33] = test system: NCI-H522
[34] = test system: NCI/ADR-RES
[35] = test system: OVCAR-3
[36] = test system: OVCAR-4
[37] = test system: OVCAR-5
[38] = test system: OVCAR-8
[39] = test system: PC-3
[40] = test system: RPMI-8226
[41] = test system: RXF 393
[42] = test system: SF-268
[43] = test system: SF-295
[44] = test system: SF-539
[45] = test system: SK-MEL-28
[46] = test system: SK-MEL-2
[47] = test system: SK-MEL-5
[48] = test system: SK-OV-3
[49] = test system: SN12C
[50] = test system: SNB-19
[51] = test system: SNB-75
[52] = test system: SR
[53] = test system: SW-620
[54] = test system: T47D
[55] = test system: TK-10
[56] = test system: U-251
[57] = test system: UACC-257
[58] = test system: UACC-62
[59] = test system: UO-31
[60] = test system: DLD-1
[61] = test system: DMS-273
[62] = test system: LXFL 529

`c1ccc(CN2CCN3CCN(CC2)CCN(Cc2ccccc2)CC3)cc1` was tested, and the GI50 [1] was 4.57 µM (inactive), the GI50 [2] was 11.7 µM (inactive) and the GI50 [3] was 11.5 µM (inactive). The GI50 [4] was 20.7 µM (inactive), the GI50 [5] was 5.16 µM (inactive) and the GI50 [6] was 30.3 µM (inactive). For the same molecule, the GI50 [7] was 6.37 µM (inactive), the GI50 [8] was 1.93 µM (inactive) and the GI50 [9] was 12.4 µM (inactive). The GI50 [10] was 8.47 µM (inactive), the GI50 [11] was 10.9 µM (inactive) and the GI50 [12] was 4.09 µM (inactive). For the same molecule, the GI50 [13] was 32.4 µM, the GI50 [14] was 2.55 µM (inactive) and the GI50 [15] was 14.2 µM (inactive). For the same molecule, the GI50 [16] was 7.06 µM (inactive), the GI50 [17] was 3.37 µM (inactive) and the GI50 [18] was 14.6 µM (inactive). For the same molecule, the GI50 [19] was 7.23 µM (inactive), the GI50 [20] was 4 µM (inactive) and the GI50 [21] was 3.33 µM (inactive). The GI50 [22] was 8.81 µM (inactive), the GI50 [23] was 5.51 µM (inactive) and the GI50 [24] was 5.5 µM (inactive). For the same molecule, the GI50 [25] was 5.43 µM (inactive), the GI50 [26] was 3.15 µM (inactive) and the GI50 [27] was 3.3 µM (inactive). For the same molecule, the GI50 [28] was 8.75 µM (inactive), the GI50 [29] was 2.83 µM (inactive) and the GI50 [30] was 4.94 µM (inactive). The GI50 [31] was 5.05 µM (inactive), the GI50 [32] was 6.15 µM (inactive) and the GI50 [33] was 4.36 µM (inactive). The GI50 [34] was > 100 µM (inactive), the GI50 [35] was 7.91 µM (inactive) and the GI50 [36] was 4.04 µM (inactive). The GI50 [37] was 9.48 µM (inactive), the GI50 [38] was 9.73 µM (inactive) and the GI50 [39] was 4.97 µM (inactive). For the same molecule, the GI50 [40] was 2.14 µM (inactive), the GI50 [41] was 5.6 µM (inactive) and the GI50 [42] was 11.6 µM (inactive). For the same molecule, the GI50 [43] was 21.9 µM (inactive), the GI50 [44] was 8.26 µM (inactive) and the GI50 [45] was 4.67 µM (inactive). The GI50 [46] was 2.82 µM (inactive), the GI50 [47] was 1.98 µM (inactive) and the GI50 [48] was 16.4 µM (inactive). The GI50 [49] was 4.51 µM (inactive), the GI50 [50] was 5.43 µM (inactive) and the GI50 [51] was 4.05 µM (inactive). The GI50 [52] was 4.08 µM (inactive), the GI50 [53] was 13.7 µM (inactive) and the GI50 [54] was 4.08 µM (inactive). The GI50 [55] was 11.4 µM (inactive), the GI50 [56] was 4.29 µM (inactive) and the GI50 [57] was 3.04 µM (inactive). The GI50 [58] was 4.24 µM (inactive) and the GI50 [59] was 31.7 µM (inactive).

In the case of `COc1ccc(CSCc2cc(OC)c(OC)c(OC)c2)cc1`, the GI50 [1] is reported as > 100 µM (inactive), the GI50 [2] is reported as > 100 µM (inactive) and the GI50 [3] is reported as > 100 µM (inactive). For the same molecule, the GI50 [4] was > 100 µM (inactive), the GI50 [5] was > 84.5 µM (inactive) and the GI50 [6] was > 100 µM (inactive). For the same molecule, the GI50 [7] was > 100 µM (inactive), the GI50 [8] was > 100 µM (inactive) and the GI50 [9] was > 100 µM (inactive). The GI50 [10] was > 31.6 µM (inactive), the GI50 [11] was > 31.6 µM (inactive) and the GI50 [12] was > 31.6 µM (inactive). The GI50 [13] was > 45.3 µM, the GI50 [14] was 5.92 µM (inactive) and the GI50 [15] was > 100 µM (inactive). For the same molecule, the GI50 [16] was 23.9 µM (inactive), the GI50 [17] was > 100 µM (inactive) and the GI50 [18] was > 66.4 µM (inactive). For the same molecule, the GI50 [19] was > 100 µM (inactive), the GI50 [20] was 33.8 µM (inactive) and the GI50 [21] was 27.1 µM (inactive). The GI50 [22] was 28.4 µM (inactive), the GI50 [23] was > 54.5 µM (inactive) and the GI50 [24] was > 56 µM (inactive). For the same molecule, the GI50 [25] was > 100 µM (inactive), the GI50 [26] was 4.43 µM (inactive) and the GI50 [27] was 7.26 µM (inactive). The GI50 [28] was > 48.5 µM (inactive), the GI50 [29] was > 31.6 µM (inactive) and the GI50 [30] was > 100 µM (inactive). The GI50 [31] was > 76 µM (inactive), the GI50 [32] was > 100 µM (inactive) and the GI50 [33] was > 100 µM (inactive). For the same molecule, the GI50 [34] was > 31.6 µM (inactive), the GI50 [35] was > 100 µM (inactive) and the GI50 [36] was > 100 µM (inactive). For the same molecule, the GI50 [37] was > 100 µM (inactive), the GI50 [38] was > 31.6 µM (inactive) and the GI50 [39] was > 31.6 µM (inactive). For the same molecule, the GI50 [40] was > 55 µM (inactive), the GI50 [41] was > 82 µM (inactive) and the GI50 [42] was > 100 µM (inactive). For the same molecule, the GI50 [43] was > 52.4 µM (inactive), the GI50 [44] was > 71.9 µM (inactive) and the GI50 [45] was > 100 µM (inactive). For the same molecule, the GI50 [46] was > 100 µM (inactive), the GI50 [47] was 21.2 µM (inactive) and the GI50 [48] was > 100 µM (inactive). The GI50 [49] was > 86.1 µM (inactive), the GI50 [50] was > 68.1 µM (inactive) and the GI50 [51] was 37.5 µM (inactive). For the same molecule, the GI50 [52] was > 100 µM (inactive), the GI50 [53] was > 83.2 µM (inactive) and the GI50 [54] was 8 µM (inactive). For the same molecule, the GI50 [55] was > 100 µM (inactive), the GI50 [56] was > 100 µM (inactive) and the GI50 [57] was > 31.6 µM (inactive). The GI50 [58] was > 43 µM (inactive) and the GI50 [59] was > 100 µM (inactive).

With `c1ccncc1` the GI50 [3] was > 100 µM (inactive), the GI50 [4] was > 100 µM (inactive) and the GI50 [60] was > 100 µM (inactive). The GI50 [61] was > 100 µM (inactive), the GI50 [13] was > 100 µM and the GI50 [22] was > 100 µM (inactive). The GI50 [62] was > 100 µM (inactive), the GI50 [29] was > 100 µM (inactive) and the GI50 [30] was > 100 µM (inactive). For the same molecule, the GI50 [31] was > 100 µM (inactive), the GI50 [42] was > 100 µM (inactive) and the GI50 [44] was > 100 µM (inactive). The GI50 [49] was > 100 µM (inactive), the GI50 [51] was 85.5 µM (inactive) and the GI50 [52] was > 100 µM (inactive).
